This is an account of results in patent US20250179550A1, “Methods to imbue polymeric materials with new structures and functions” (The Regents of the University of California, priority 2022, published 2025).

For test [1], the system named is MicD-F and ArtGox. Put plainly: One-pot cyclodehydration and dehydrogenation of peptide substrates by MicD-F and ArtGox, LC-MS. It is filed as biochemical, Microcystis aeruginosa; Arthrospira platensis. The text has this:
Next, we explored whether MicD-F and ArtGox could act in synergy to convert peptides containing non-α-amino acids at the +1 site directly into the corresponding thiazoles 3(a-i) (FIG. 9A). […] ArtGox efficiently oxidized each thiazoline to the corresponding thiazole in yields that exceeded 97% over the two steps for every example (products 3(a-i)) (FIGS. 9B and D). UHPLC analysis of each reaction mixture confirmed that thiazoles 3a-e were the sole reaction product. Coelution with excess flavin mononucleotide precluded UHPLC analysis of thiazoles 3f-i (FIG. 18).
Reactions were analyzed as described above. Under these conditions, every peptide evaluated was a substrate for MicD-F and a few were substrates for both MicD-F and ArtGox (FIG. 10B-C). Substrates containing β^3-amino acid-, β^2-amino acid-, or cyclic β^2,β^3-amino acids at the −1 site (substrates 4(a-d)), were fully consumed under these conditions (<1% unmodified peptide). […] In contrast, substrate 4b, with geminal β^2-methyl substituents, was converted into a 30/70 mixture of thiazoline 5b and thiazole 6b. Substrates 4e-g containing aramid monomers at the −1 position reacted more slowly under these conditions, producing the analogous thiazoline products in 65-85% yield after 24 h reaction at pH 8 (FIG. 10B-C). […] With the exception of substrate 4c, increasing the pH to 9.0 promoted formation of the desired thiazole product (FIG. 21B-C). However, even under these conditions only substrate 4b (88%) yielded greater than 41% thiazole product (FIG. 21B-C). […] ArtGox appears especially intolerant of substitution or sp^2 hybridization at the β^3-position of substrates at the −1 site.
A typical reaction scale for analysis via LC-MS was 30 μL. Peptide substrate stock (3 L) suspended at 1 mM in 10 mM bicine, 150 mM NaCl, 1 mM TCEP, pH 9.0 was added to 21 L of reaction buffer (7.14 mM ATP, 7.14 mM MgCl2, 2.86 mM FMN, 100 mM bicine, 150 mM NaCl, 1 mM TCEP, pH 8.0 or 9.0). Separately, aliquots of MicD-F (500 M in 20 mM HEPES, 150 mM NaCl, 1 mM TCEP, pH 7.4) and ArtGox (800 M in 20 mM HEPES, 150 mM NaCl, 1 mM TCEP, pH 7.4) were thawed on ice. The thawed enzyme aliquots were then diluted with cold storage buffer (20 mM HEPES, 150 mM NaCl, 1 mM TCEP, pH 7.4) to a concentration equal to 10× the desired enzyme concentration. The peptide and enzyme solutions were then incubated at 37° C. for 15 minutes. After temperature equilibration, enzyme solutions (3 μL of each) were added to the peptide solution and gently pipette mixed. The resulting solution was then incubated at 37° C. for the indicated amount of time before LC-MS analysis.
To remove 6×His-tagged enzymes, Ni-NTA (Qiagen, Hilden, Germany) slurry and crude reaction were mixed 1:1 by volume and incubated on ice for 30 minutes with occasional agitation. The Ni-NTA resin was then removed by centrifugation at 21,300×g for 10 minutes at 4° C. Enzyme-depleted reaction mixture (1 μL) was used for LC-MS analysis which was performed on an Agilent 1290 Infinity II HPLC connected to an Agilent 6530B QTOF AJS-ESI. The mobile phase for LC-MS was water and acetonitrile with 0.1% (v/v) formic acid and a flow rate of 0.7 mL/min. Each sample was injected onto an Eclipse XDB C-18 column (2.1×50 mm, 1.8-Micron, room temperature, Agilent) and separated using a linear gradient from 5 to 95% acetonitrile over 4.5 minutes after an initial hold at 5% acetonitrile for 0.5 minutes. The following parameters were used during acquisition: Fragmentor voltage 175 V, gas temperature 300° C., gas flow 8 L/min, sheath gas temperature 350° C., sheath gas flow 11 L/min, nebulizer pressure 35 psi, skimmer voltage 65 V, Vcap 3500 V, 1 spectra/s.

Test [2] concerns MicD-F. Nature of the test: MicD-F-catalyzed cyclodehydration of leader-free peptide substrates, LC-MS. It is filed as biochemical, Microcystis aeruginosa. The note with it: pH 8.0, 37° C.; for cyclodehydration by MicD-F: 50 mol % MicD-F, 24 hours. The method, then: We began by exploring the tolerance of MicD-F for sequences containing non-α-amino acid monomers at the +1 site (FIG. 8A and FIG. 9A-B). A series of nine potential substrates were prepared in which a non-α-amino acid preceded the reaction site (substrates 1(a-i)). Monomers evaluated included arenes, aramids, fluorophores, and linear and cyclic β-amino acids. […] Cyclization was analyzed initially via liquid chromatography-mass spectrometry (LC-MS) and the extent of product formation estimated by integrating the extracted ion chromatogram (FIG. 9B-C). Virtually every substrate examined underwent MicD-F-catalyzed cyclization to the corresponding thiazoline under these conditions. Substrates containing electron-withdrawing or donating aromatic rings, bulky multi-ring systems, and linear and cyclic β-amino acids were all cyclized efficiently by MicD-F, with yields between 91 and 99% (products 2(a-i)). UHPLC analysis of each reaction mixture confirmed that thiazolines 2a-i were the sole reaction products under these conditions (FIG. 16).
MicD-F, sequence (as listed by the source): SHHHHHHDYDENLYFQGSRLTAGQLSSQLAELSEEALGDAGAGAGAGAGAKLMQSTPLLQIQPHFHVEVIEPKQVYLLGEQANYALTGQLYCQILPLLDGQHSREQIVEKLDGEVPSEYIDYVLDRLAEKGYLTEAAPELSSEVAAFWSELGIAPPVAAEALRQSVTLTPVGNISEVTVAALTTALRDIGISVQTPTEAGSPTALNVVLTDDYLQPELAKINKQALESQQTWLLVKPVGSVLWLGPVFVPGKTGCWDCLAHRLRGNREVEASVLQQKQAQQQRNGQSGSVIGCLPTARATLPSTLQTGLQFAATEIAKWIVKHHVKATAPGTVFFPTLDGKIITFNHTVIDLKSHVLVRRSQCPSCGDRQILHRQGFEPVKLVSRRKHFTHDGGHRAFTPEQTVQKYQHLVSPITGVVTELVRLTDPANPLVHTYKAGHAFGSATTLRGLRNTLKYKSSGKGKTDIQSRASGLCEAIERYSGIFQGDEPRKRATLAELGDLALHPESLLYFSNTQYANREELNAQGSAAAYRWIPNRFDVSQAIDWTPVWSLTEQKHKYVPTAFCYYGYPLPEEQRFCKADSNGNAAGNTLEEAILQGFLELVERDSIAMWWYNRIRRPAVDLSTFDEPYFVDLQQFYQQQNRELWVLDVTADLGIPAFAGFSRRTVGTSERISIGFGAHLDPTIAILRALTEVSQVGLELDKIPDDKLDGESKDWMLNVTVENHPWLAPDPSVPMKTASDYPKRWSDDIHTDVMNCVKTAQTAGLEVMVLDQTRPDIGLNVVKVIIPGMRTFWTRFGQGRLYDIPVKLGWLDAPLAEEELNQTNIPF
A typical reaction scale for analysis via LC-MS was 30 μL. Peptide substrate stock (3 μL) suspended at 1 mM (10 mM bicine, 150 mM NaCl, 1 mM TCEP, pH 9.0) was added to 24 μL of reaction buffer (6.25 mM ATP, 6.25 mM MgCl2, 100 mM bicine, 150 mM NaCl, 1 mM TCEP, pH 8.0 or 9.0). Separately, an aliquot of MicD-F (500 M in 20 mM HEPES, 150 mM NaCl, 1 mM TCEP, pH 7.4) was thawed on ice. The thawed enzyme aliquot was then diluted with cold storage buffer (20 mM HEPES, 150 mM NaCl, 1 mM TCEP, pH 7.4) to a concentration equal to 10× the desired enzyme concentration. The peptide and enzyme solutions were then incubated at 37° C. for 15 minutes. After temperature equilibration, enzyme solution (3 μL) was added to the peptide solution and gently pipette mixed. The resulting solution was then incubated at 37° C. for the indicated amount of time before LC-MS analysis.
To remove 6×His-tagged enzymes, Ni-NTA (Qiagen, Hilden, Germany) slurry and crude reaction were mixed 1:1 by volume and incubated on ice for 30 minutes with occasional agitation. […]

Test [3] concerns MicD-F and ArtGox. Put plainly: Reaction of protein substrates with MicD-F and ArtGox in tandem, LC-MS deconvoluted mass. It is filed as biochemical, Microcystis aeruginosa; Arthrospira platensis. As to conditions: 50 mol % MicD-F, 80 mol % ArtGox, pH 9.0, 37° C., 24 hours. The method, then: Reactions of proteins with MicD-F and ArtGox were performed in the manner described above with minor modifications. The substrate stock was a 1 mM solution of protein in 20 mM HEPES, 150 mM NaCl, 1 mM TCEP, pH 7.4. Reactions were carried out at either 25° C. or 37° C. as indicated.
(§1) Unprocessed reaction mixture (1 μL) was used for LC-MS analysis which was performed on an Agilent 1290 Infinity II HPLC connected to an Agilent 6530B QTOF AJS-ESI. The mobile phase for LC-MS was water and acetonitrile with 0.1% (v/v) formic acid and a flow rate of 0.4 mL/min. Each sample was injected onto a Poroshell 300SB-C8 column (2.1×75 mm, 5-Micron, room temperature, Agilent) using a linear gradient from 5 to 55% acetonitrile over 8 minutes after an initial hold at 5% acetonitrile for 2 minutes (0.4 mL/min). The following parameters were used during acquisition: Fragmentor voltage 225 V, gas temperature 300° C., gas flow 10 L/min, sheath gas temperature 350° C., sheath gas flow 11 L/min, nebulizer pressure 35 psi, skimmer voltage 65 V, Vcap 5000 V, 1 spectra/s. Intact protein masses were obtained via deconvolution using the Maximum Entropy algorithm in Mass Hunter Bioconfirm (V10, Agilent).

Test [4] has as its system MicD-F. Put plainly: Reaction of protein substrates (mCherry and Rop variants) with MicD-F, LC-MS deconvoluted mass. It is filed as biochemical, Microcystis aeruginosa. As to conditions: 50 mol % MicD-F, 24 hours. The protocol: Reactions of proteins with MicD-F were performed in the manner described above with minor modifications. Namely, the substrate stock was a 1 mM solution of protein in 20 mM HEPES, 150 mM NaCl, 1 mM TCEP, pH 7.4.
as §1

The mark [5] stands for this setting: 50 mol % MicD-F, 8 mol % ArtGox, pH 8.0, 37° C., 24 h.
Setting [6] is: 50 mol % MicD-F, 8 mol % ArtGox, pH 8.0, 37° C., 24 h, −1 site substrates.

On to IC-[ACHC]-AYDG [substrate 4c], for which, in test [1] (setting [5]), the “conversion into thiazoline” value was “converted cleanly” and the “thiazole formation” value is “no”.

IC-[ACPC]-AYDG [substrate 4d]: in test [1] (setting [5]), the “conversion into thiazoline” value was “converted cleanly” and the “thiazole formation” value is “no”.

Regarding IC-[B2-Dimethyl]-AYDG [substrate 4b], in test [1] (setting [6]), the “yield of thiazole product” value is on record as 70% and the “yield of thiazoline product” value is reported as 30%. In addition, the “yield of thiazole product” value in test [1] (50 mol % MicD-F, 8 mol % ArtGox, pH 9.0, 37° C., 24 h, −1 site substrates) amounted to 88%.

Regarding IC-[B3-HIle]-AYDG [substrate 4a], in test [1] (setting [5]), the “conversion into thiazoline” value is given as “converted cleanly” and the “thiazole formation” value is on record as “little”.

For ICAYDG [reference compound], the “two-step conversion into thiazole” value in test [1] (5 mol % MicD-F, 40 mol % ArtGox, pH 8.0, 37° C., 16 h) is given as “complete two-step conversion”. Moreover, the “conversion by MicD-F” value in test [2] (5 mol % MicD-F, 4 h) is recorded as “complete conversion”.

Take “ICIAYDG [model peptide with α-amino acid Ile between the site of cyclization and the AYD motif, reference compound]”: the “thiazole formation” value in test [1] (setting [5]) is given as “complete conversion”. The “cyclodehydration by MicD-F” value in test [2] is “complete reaction”.

Take ITAYDG: in test [2], the “cyclodehydration by MicD-F” value was “significant cyclodehydration”.

As to “mCherryC+: mCherry variant with MCAYDG appended to the C-terminus, SEQ ID NO: 9”, the “thiazole installation (mass shift relative to MicD-F only)” value in test [3] is reported as “expected −2 Da shift”. The “cyclodehydration of mCherry variants to thiazoline (loss of water)” value in test [4] (pH 9.0, 37° C.) is listed as “virtually complete conversion”; in test [4] (pH 9.0, 42° C.) it was “nearly completely converted”.
